Reference: US12358921B2, “Antiviral heterocyclic compounds” (priority 2022, dated 2025)

Assays:
[1] = system: HUMAN RSV-A (“LONG” STRAIN); experiment: RSV-A assay (CPE, ATPlite) in Hep-2 cells; type: cell-based; conditions: human respiratory syncytial virus, 120 h, MOI 0.1, 5-day incubation
In short: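 Protection from RSV cytopathic effect read by ATP luminescence (ATPlite) after 5-day culture. Genotype A "Long" virus added at MOI 0.1 to Hep-2 monolayers at 8,000 cells/well, pre-dosed with duplicate 2-fold compound dilutions; controls include infected untreated and uninfected wells. EC50 values binned into ranges.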

[2] = system: hMPV A2 TN/94-49; experiment: HMPV antiviral assay Method 1 (LLC-MK2 cells, ATP-Lite); type: cell-based; conditions: hMPV A2 TN/94-49, LLC-MK2 cells
In short: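 LLC-MK2 cells infected in suspension with hMPV A2 TN/94-49 at MOI 0.005, 5,000 cells/well, in serum-free OptiMEM with 2 μg/mL TPCK-trypsin (final) and CaCl2; compounds in duplicate, 10 points, 2 μM top, 2.5-fold dilutions. After 7 days at 37 °C, cell health by ATP-Lite luminescence; EC50 by four-parameter fit.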

| Structure (SMILES) | EC50 [1] [nM] | EC50 [2] [nM] |
| --- | --- | --- |
| COc1cc(C(=O)NC[C@](O)(c2cc3c(c(-c4cc(Cl)c(F)cc4F)n2)OC[C@]3(C)C(N)=O)c2ccccc2F)cc2cn(C3CC3)nc12 [Example 136] | < 200 | < 500 |
| COc1cc(C(=O)NC[C@](O)(c2cc3c(c(-c4cc(Cl)c(F)cc4F)n2)OC[C@]3(C)C(N)=O)c2ccccc2F)cc2cc(C3CC3)nn12 [Example 137] | < 200 | < 500 |
| COc1cc(C(=O)NC[C@](O)(c2cc3c(c(-c4cc(Cl)c(F)cc4F)n2)OC[C@]3(C)C(N)=O)c2ccccc2F)cc2cn(C(F)F)nc12 [Example 138] | < 200 | < 500 |
| CNC(=O)[C@@]1(C)COc2c1cc([C@@](O)(CNC(=O)c1cc(OC)c3nn(C4CC4)cc3c1)c1ccccc1)nc2-c1cc(Cl)c(F)cc1F [Example 141] | < 200 | < 500 |
| CCNC(=O)[C@@]1(C)COc2c1cc([C@@](O)(CNC(=O)c1cc(OC)c3nn(C4CC4)cc3c1)c1ccccc1)nc2-c1cc(Cl)c(F)cc1F [Example 142] | < 200 | < 500 |
| COc1cc(C(=O)NC[C@@](O)(c2ccccc2)c2cc3c(c(-c4cc(Cl)c(F)cc4F)n2)OC[C@]3(C)C(=O)NC2CC2)cc2cn(C3CC3)nc12 [Example 143] | < 200 | < 500 |
| COc1cc(C(=O)NC[C@@](O)(c2ccccc2)c2cc3c(c(-c4cc(C(F)(F)F)ccc4F)n2)OC[C@]3(C)C(N)=O)cc2cn(C(F)F)nc12 [Example 148] | < 200 | < 500 |
| COc1cc(C(=O)NC[C@@](O)(c2ccccc2)c2cc3c(c(-c4cc(C(F)(F)F)ccc4F)n2)OC[C@]3(C)C(N)=O)cc2cc(C3CC3)nn12 [Example 149] | < 200 | < 500 |
| [2H]C([2H])([2H])c1nc2c(OC)cc(C(=O)NC[C@@](O)(c3ccccc3)c3cc4c(c(-c5cc(Cl)c(F)cc5F)n3)OC[C@]4(C)C(N)=O)cc2s1 [Example 155] | < 200 | < 500 |
| COc1cc(C(=O)NC[C@@](O)(c2ccccc2)c2cc3c(c(-c4cc(Cl)c(F)cc4F)n2)OC[C@]3(C)C(N)=O)cc2cn(C(F)F)nc12 [Example 156] | < 200 | < 500 |
| COc1cc(C(=O)NC[C@@](O)(c2ccccc2)c2cc3c(c(-c4cc(Cl)c(F)cc4F)n2)OC[C@]3(C)C(N)=O)cc2cc(Cl)c(C)nc12 [Example 159] | < 200 | < 500 |
| [2H]C([2H])([2H])c1nc2c(OC)cc(C(=O)NC[C@@](O)(c3cccc(OC)c3)c3cc4c(c(-c5cc(Cl)c(F)cc5F)n3)OC[C@]4(C)C(N)=O)cc2s1 [Example 163] | < 200 | < 500 |
| COc1cccc([C@](O)(CNC(=O)c2cc(OC)c3nc(C)c(Cl)cc3c2)c2cc3c(c(-c4cc(Cl)c(F)cc4F)n2)OC[C@]3(C)C(N)=O)c1 [Example 164] | < 200 | < 500 |
| COc1ccc([C@](O)(CNC(=O)c2cc(OC)c3nn(C(F)F)cc3c2)c2cc3c(c(-c4cc(Cl)c(F)cc4F)n2)OC[C@]3(C)C(N)=O)cc1 [Example 167] | < 200 | < 500 |
| [2H]C([2H])([2H])c1nc2c(OC)cc(C(=O)NC[C@@](O)(c3ccc(OC)cc3)c3cc4c(c(-c5cc(Cl)c(F)cc5F)n3)OC[C@]4(C)C(N)=O)cc2s1 [Example 168] | < 200 | < 500 |
| [2H]c1c([2H])c([2H])c([C@](O)(CNC(=O)c2cc(OC)c3nn(C4CC4)cc3c2)c2cc3c(c(-c4cc(Cl)c(F)cc4F)n2)OC[C@]3(C)C(N)=O)c([2H])c1[2H] [Example 169] | < 200 | < 500 |
| COc1cc(C(=O)NC[C@@](O)(c2ccsc2)c2cc3c(c(-c4cc(Cl)c(F)cc4F)n2)OC[C@]3(C)C(N)=O)cc2cn(C3CC3)nc12 [Example 173] | < 200 | < 500 |
| COc1cc(C(=O)NC[C@@](O)(c2ccsc2)c2cc3c(c(-c4cc(Cl)c(F)cc4F)n2)OC[C@]3(C)C(N)=O)cc2cn(C(F)F)nc12 [Example 174] | < 200 | < 500 |
| COc1cc(C(=O)NC[C@@](O)(c2ccsc2)c2cc3c(c(-c4cc(Cl)c(F)cc4F)n2)OC[C@]3(C)C(N)=O)cc2cn(C3(F)CC3)nc12 [Example 175] | < 200 | < 500 |
| [2H]C([2H])([2H])c1nc2c(OC)cc(C(=O)NC[C@@](O)(c3ccsc3)c3cc4c(c(-c5cc(Cl)c(F)cc5F)n3)OC[C@]4(C)C(N)=O)cc2s1 [Example 176] | < 200 | < 500 |
| COc1cc(C(=O)NC[C@@](O)(c2ccsc2)c2cc3c(c(-c4cc(F)c(F)cc4F)n2)OC[C@]3(C)C(N)=O)cc2cn(C3CC3)nc12 [Example 177] | < 200 | < 500 |
| COc1cc(C(=O)NC[C@@](O)(c2ccsc2)c2cc3c(c(-c4cc(F)c(F)cc4F)n2)OC[C@]3(C)C(N)=O)cc2cn(C(F)F)nc12 [Example 178] | < 200 | < 500 |

| Structure (SMILES) | EC50 [1] [nM] | EC50 [2] [nM] |
| --- | --- | --- |
| COc1cc(C(=O)NC[C@](O)(c2cc3c(c(-c4cc(Cl)c(F)cc4F)n2)OC[C@]3(C)C(N)=O)c2cnn[nH]2)cc2cn(C3CC3)nc12 [Example 180] | < 200 | > 500 |
| COc1cc(C(=O)NC[C@@](O)(c2cc3c(c(-c4cc(Cl)c(F)cc4F)n2)OC[C@]3(C)C(N)=O)c2cnn[nH]2)cc2cn(C3CC3)nc12 [Example 181] | > 200 | > 500 |
| [2H]c1nc2c(OC(F)F)cc(C(=O)NC[C@@](O)(c3ccccc3)c3cc4c(c(-c5cc(Cl)c(F)cc5F)n3)OC[C@]4(C)C(N)=O)cc2cc1C([2H])([2H])[2H] [Example 217] | < 200 | < 500 |
| COc1cc(C(=O)NC[C@@](O)(c2ccccc2)c2cc3c(c(-c4ccc5c(c4Cl)OC(F)(F)O5)n2)OC[C@]3(C)C(N)=O)cc2cn(C3CC3)nc12 [Example 251] | < 200 | < 500 |
| C[C@]1(C(N)=O)COc2c1cc([C@@](O)(CNC(=O)c1cc(OC3CC3)c3nn(C4CC4)cc3c1)c1ccccc1)nc2-c1ccc2c(c1Cl)OC(F)(F)O2 [Example 252] | < 200 | < 500 |
| COc1cc(C(=O)NC[C@@](O)(c2ccccc2)c2cc3c(c(-c4ccc5c(c4Cl)OC(F)(F)O5)n2)OC[C@]3(C)C(N)=O)cc2cn(C(F)F)nc12 [Example 253] | < 200 | < 500 |
| COc1cc(C(=O)NC[C@@](O)(c2ccccc2)c2cc3c(c(-c4ccc5c(c4Cl)OC(F)(F)O5)n2)OC[C@]3(C)C(N)=O)cc2cc(C3CC3)nn12 [Example 254] | < 200 | < 500 |
| COc1cc(C(=O)NC[C@@](O)(c2ccccc2)c2cc3c(c(-c4ccc5c(c4Cl)OC(F)(F)O5)n2)OC[C@]3(C)C(N)=O)cc2cn(C3(F)CC3)nc12 [Example 255] | < 200 | < 500 |
| C[C@]1(C(N)=O)COc2c1cc([C@@](O)(CNC(=O)c1ccc3nc(N)sc3c1)c1ccccc1)nc2-c1ccc2c(c1Cl)OC(F)(F)O2 [Example 256] | < 200 | < 500 |
| COc1cc(C(=O)NC[C@@](O)(c2ccccc2)c2cc3c(c(-c4ccc(F)c(Cl)c4Cl)n2)OC[C@]3(C)C(N)=O)cc2cn(C3CC3)nc12 [Example 257] | < 200 | < 500 |
| COc1cc(C(=O)NC[C@@](O)(c2ccccc2)c2cc3c(c(-c4cccc(Cl)c4Cl)n2)OC[C@]3(C)C(N)=O)cc2cn(C(F)F)nc12 [Example 261] | < 200 | < 500 |
| Cc1nc2ccc(C(=O)NC[C@@](O)(c3ccccc3)c3cc4c(c(-c5ccc(F)c(Cl)c5Cl)n3)OC[C@]4(C)C(N)=O)cc2o1 [Example 267] | < 200 | < 500 |
| [2H]C([2H])([2H])c1nc2c(OC)cc(C(=O)NC[C@@](O)(c3cccc(F)c3)c3cc4c(c(-c5ccc(F)c(Cl)c5Cl)n3)OC[C@]4(C)C(N)=O)cc2s1 [Example 272] | < 200 | < 500 |
| [2H]C([2H])([2H])c1nc2c(OC)cc(C(=O)NC[C@@](O)(c3ccccc3)c3cc4c(c(-c5ccc(F)c(Cl)c5Cl)n3)OC[C@]4(C)C(N)=O)cc2s1 [Example 273] | < 200 | < 500 |
| COc1cc(C(=O)NC[C@@](O)(c2cccc(F)c2)c2cc3c(c(-c4ccc5c(c4Cl)OC(F)(F)O5)n2)OC[C@]3(C)C(N)=O)cc2cn(C3CC3)nc12 [Example 274] | < 200 | < 500 |
| COc1cc(C(=O)NC[C@@](O)(c2cccc(F)c2)c2cc3c(c(-c4ccc(F)c(Cl)c4Cl)n2)OC[C@]3(C)C(N)=O)cc2oc(C)nc12 [Example 279] | < 200 | < 500 |
| Cc1nc2ccc(C(=O)NC[C@@](O)(c3cccc(F)c3)c3cc4c(c(-c5ccc(F)c(Cl)c5Cl)n3)OC[C@]4(C)C(N)=O)cc2o1 [Example 283] | < 200 | < 500 |
| Cc1nc2ccc(C(=O)NC[C@@](O)(c3cccc(F)c3)c3cc4c(c(-c5ccc6c(c5Cl)OC(F)(F)O6)n3)OC[C@]4(C)C(N)=O)cc2o1 [Example 284] | < 200 | < 500 |
| COc1cc(C(=O)NC[C@@](O)(c2ccccc2)c2cc3c(c(-c4cc(C(F)F)c(F)cc4F)n2)OC[C@]3(C)C(N)=O)cc2cn(C3CC3)nc12 [Example 288] | < 200 | < 500 |
| COc1cc(C(=O)NC[C@](O)(c2cc3c(c(-c4cc(Cl)c(F)cc4F)n2)OC[C@]3(C)C(N)=O)c2cc(C)cs2)cc2cn(C3CC3)nc12 [Example 467] | < 200 | < 500 |
| COc1cc(C(=O)NCC(O)(c2cc3c(c(-c4cc(Cl)c(F)cc4F)n2)OC[C@]3(C)C(N)=O)c2cc3ccccc3s2)cc2cn(C3CC3)nc12 (stereo partly shown) [Example 469] | < 200 | > 500 |
| COc1cc(C(=O)NCC(O)(c2csc(Cl)c2)c2cc3c(c(-c4cc(Cl)c(F)cc4F)n2)OC[C@]3(C)C(N)=O)cc2cn(C3CC3)nc12 (stereo partly shown) [Example 471] | < 200 | < 500 |
